The values below come from patent US5686486A, “4-hydroxy-benzopyran-2-ones and 4-hydroxy-cycloalkyl[b]pyran-2-ones useful to treat retroviral infections” (priority 1995, dated 1997).

In general, Ki refers to the equilibrium dissociation constant of an inhibitor or competing ligand from its target.

Test [1] concerns the target T1, HIV-1 protease (Human immunodeficiency virus type 1 group M subtype B, UniProt P04585). Description: biochemical. The conditions noted are these: for inhibition at 0.123 µM: read-out: HIV-1 Protease % Inhib, dose 0.123 uM; for inhibition at 0.37 µM: read-out: HIV-1 Protease % Inhib, dose 0.370 uM; for inhibition at 1.1 µM: read-out: HIV-1 Protease % Inhib, dose 1.100 uM; for inhibition at 3.3 µM: read-out: HIV-1 Protease % Inhib, dose 3.300 uM; for inhibition at 10 µM: read-out: HIV-1 Protease % Inhib, dose 10.000 uM; for inhibition at 30 µM: read-out: HIV-1 Protease % Inhib, dose 30.000 uM. In a few lines: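 Percent inhibition derived from fluorescent cleavage product separated by filtration after streptavidin-bead capture of intact biotin/FITC substrate. Reaction: enzyme (10 μl, 0.1 μM stock) with substrate (20 μl, 0.2 μM stock) and compound, 1 h at room temperature in dark, pH 5.5 acetate buffer with 1.0 M NaCl and 0.05% NP-40.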

Test [2] deals with T1, HIV-1 protease. Description: biochemical. The conditions noted are these: read-out: HIV-1 FITC KI. In a few lines: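 Enzyme (40 nM stock) and substrate (200 μM stock) incubated with inhibitor, 24–48 two-fold serial concentrations, for 90 min at room temperature, then quenched with avidin beads. Nonlinear least-squares analysis gives Ki; a known-Ki inhibitor validates each run.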

Molecules are shown by their SMILES. Where “and” joins values, the source holds several entries; their conditions need not be identical. Equal entries are not always repeated.

`O=c1oc2c(c(O)c1[C@H](c1cccc(NS(=O)(=O)c3ccc(F)cc3)c1)C1CC1)CCCCCC2` [Example 252, (-)-N-[3-[Cyclopropyl(5,6,7,8,9,10-hexahydro4-hydroxy-2-oxo-2H-cycloocta[b]pyran-3-yl)methyl]phenyl]-4-fluoro-benzenesulfonamide]: on HIV-1 protease [1], the inhibition at 0.123 µM stood at 100%, the inhibition at 0.37 µM came out at 108%, the inhibition at 1.1 µM amounted to 111% and the inhibition at 3.3 µM stood at 112%. At HIV-1 protease [1], the inhibition at 10 µM amounted to 116% and the inhibition at 30 µM was determined as 109%. Further, on HIV-1 protease [2], the Ki is 1.6 nM and 1.1 nM.
In the case of `Cn1cnc(S(=O)(=O)Nc2cccc([C@@H](c3c(O)c4c(oc3=O)CCCCCC4)C3CC3)c2)c1` [Example 254, (-)-N-[3-[Cyclopropyl(5,6,7,8,9,10-hexahydro-4-hydroxy-2-oxo-2H-cycloocta[b]pyran-3-yl)methyl]phenyl]-1-methyl-1H-imidazole-4-sulfonamide], the “HIV-1 Protease % Inhib” value on HIV-1 protease [1] (dose 0.123 uM) amounted to 82.28%; on HIV-1 protease [1] (dose 0.370 uM), 97.98%; on HIV-1 protease [1] (dose 1.100 uM), 107.75%; on HIV-1 protease [1] (dose 3.300 uM), 111.05%; on HIV-1 protease [1] (dose 10.000 uM), 112.1%; at HIV-1 protease [1] (dose 30.000 uM) it was 103.1%. For the same compound, the Ki on HIV-1 protease [2] was 0.65 nM.
With `O=c1oc2c(c(O)c1[C@H](c1cccc(NS(=O)(=O)c3cccc4cccnc34)c1)C1CC1)CCCCCC2` [Example 256, (-)-N-[3-[Cyclopropyl(5,6,7,8,9,10-hexahydro-4-hydroxy-2-oxo-2H-cycloocta[b]pyran-3-yl)methyl]phenyl]-8-quinolinesulfonamide], at HIV-1 protease [1], the inhibition at 0.123 µM was 82.5%, the inhibition at 0.37 µM amounted to 91.3%, the inhibition at 1.1 µM worked out at 99% and the inhibition at 3.3 µM was 95%. Moreover, at HIV-1 protease [1], the inhibition at 10 µM worked out at 101% and the inhibition at 30 µM was found to be 96.1%. Moreover, the Ki at HIV-1 protease [2] was 0.42 nM.
Take `O=c1oc2c(c(O)c1[C@@H](c1cccc(NS(=O)(=O)c3cccc4cccnc34)c1)C1CC1)CCCCCC2` [Example 260, (+)-N-[3-[Cyclopropyl(5,6,7,8,9, 10-hexahydro-4-hydroxy-2-oxo-2H-cycloocta[b]pyran-3-yl)methyl]phenyl]-8-quinolinesulfonamide]: at HIV-1 protease [1], the inhibition at 0.123 µM was 73.8%, the inhibition at 0.37 µM worked out at 91.7%, the inhibition at 1.1 µM came to 99% and the inhibition at 3.3 µM stood at 106%. On HIV-1 protease [1], the inhibition at 10 µM stood at 102% and the inhibition at 30 µM was found to be 96.9%. Further, on HIV-1 protease [2], the Ki came to 0.93 nM.
For `CC(C)(C)c1ccc(S(=O)(=O)Nc2cccc(C(c3c(O)c4c(oc3=O)CCCCCC4)C3CC3)c2)cc1` (stereo not drawn) [Example 265, N-[3-[Cyclopropyl(5,6,7,8,9,10-hexahydro-4hydroxy-2-oxo-2H-cycloocta[b]pyran-3-yl)methyl]phenyl]-4-(1,1-dimethylethyl)-benzenesulfonamide], on HIV-1 protease [1], the inhibition at 0.123 µM was determined as 25.3%, the inhibition at 0.37 µM was 54.8%, the inhibition at 1.1 µM is 76.9% and the inhibition at 3.3 µM amounted to 86.1%. On HIV-1 protease [1], the inhibition at 10 µM was 100% and the inhibition at 30 µM stood at 98.3%. Moreover, the Ki at HIV-1 protease [2] came out at 31.5 nM.
As for `O=c1oc2c(c(O)c1C(c1cccc(NS(=O)(=O)c3ccc(Cl)c(Cl)c3)c1)C1CC1)CCCCCC2` (stereo not drawn) [Example 269, 3,4-Dichloro-N-[3-[cyclopropyl(5,6,7,8,9,10-hexahydro-4-hydroxy-2-oxo-2H-cycloocta[b]pyran-3-yl)methyl]phenyl]-benzenesulfonamide], on HIV-1 protease [1], the inhibition at 0.123 µM amounted to 77.1%, the inhibition at 0.37 µM was 95.7%, the inhibition at 1.1 µM came to 112% and the inhibition at 3.3 µM is 114%. For the same compound, at HIV-1 protease [1], the inhibition at 10 µM was 125% and the inhibition at 30 µM stood at 114%. The Ki at HIV-1 protease [2] was 5.3 nM and 2.9 nM.
